One may read the Ki as the dissociation constant of the complex between target and ligand, obtained from inhibition or displacement. The low end stands for a stronger hold on the target, the high end for a looser hold on the target. Usually IC50 stands for the midpoint of a concentration-inhibition curve.

The target in test [1] is T1, Adenosine receptor A1 (Homo sapiens, UniProt P30542).
T1 sequence (P30542 whole entry): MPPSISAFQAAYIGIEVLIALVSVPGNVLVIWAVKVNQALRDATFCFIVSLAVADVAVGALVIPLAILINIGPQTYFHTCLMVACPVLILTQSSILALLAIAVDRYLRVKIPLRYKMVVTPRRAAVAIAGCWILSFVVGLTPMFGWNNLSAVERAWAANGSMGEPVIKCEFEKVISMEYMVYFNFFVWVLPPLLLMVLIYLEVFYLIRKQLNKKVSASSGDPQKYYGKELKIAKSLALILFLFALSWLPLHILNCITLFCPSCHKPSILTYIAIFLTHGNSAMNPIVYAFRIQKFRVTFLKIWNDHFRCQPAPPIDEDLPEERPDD
The test can be described thus: Displacement of [3H]CCPA from human adenosine A1 receptor expressed in CHO cells. Type of test: cell-based. In general terms: Displacement assays read how much labelled ligand stays bound in the presence of the test substance.

Test [2] addresses T2, Adenosine receptor A3 (Homo sapiens, UniProt P0DMS8).
T2 sequence (P0DMS8 whole entry): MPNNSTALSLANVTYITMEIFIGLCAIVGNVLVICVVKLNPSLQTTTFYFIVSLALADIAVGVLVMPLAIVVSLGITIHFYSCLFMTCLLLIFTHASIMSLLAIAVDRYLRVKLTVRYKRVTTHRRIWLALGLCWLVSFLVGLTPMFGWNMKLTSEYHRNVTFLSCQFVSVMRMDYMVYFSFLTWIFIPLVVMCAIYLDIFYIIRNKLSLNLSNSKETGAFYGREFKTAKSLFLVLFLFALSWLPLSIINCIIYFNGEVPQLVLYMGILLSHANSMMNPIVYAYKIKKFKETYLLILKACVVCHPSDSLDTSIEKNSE
The test can be described thus: Displacement of [3H]NECA from human adenosine A3 receptor expressed in CHO cells. Type of test: cell-based.

Test [3] concerns the target T3, Adenosine receptor A2b (Homo sapiens, UniProt P29275).
T3 sequence (P29275 whole entry): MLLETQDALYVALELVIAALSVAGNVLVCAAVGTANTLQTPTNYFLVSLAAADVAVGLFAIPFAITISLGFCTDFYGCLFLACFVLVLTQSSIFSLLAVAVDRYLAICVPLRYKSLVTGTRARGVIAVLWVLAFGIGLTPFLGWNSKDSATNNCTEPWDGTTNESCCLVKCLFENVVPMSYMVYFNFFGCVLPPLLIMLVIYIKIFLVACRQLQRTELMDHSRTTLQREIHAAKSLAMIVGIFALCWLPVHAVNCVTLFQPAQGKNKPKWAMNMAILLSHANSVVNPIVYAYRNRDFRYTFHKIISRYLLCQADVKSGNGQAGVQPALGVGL
The test can be described thus: Antagonist activity at human adenosine A2B receptor expressed in CHO cells assessed as inhibition of NECA-induced adenylyl cyclase activity. Type of test: functional, cell-based.

Test [4] deals with Adenosine receptor A2a (Homo sapiens, UniProt P29274). The test can be described thus: biochemical.
Description: Displacement of [3H]NECA from human adenosine A2A receptor expressed in CHO cells

Bounds are passed on as bounds.

Adenosine receptor A2a, sequence (P29274 whole entry): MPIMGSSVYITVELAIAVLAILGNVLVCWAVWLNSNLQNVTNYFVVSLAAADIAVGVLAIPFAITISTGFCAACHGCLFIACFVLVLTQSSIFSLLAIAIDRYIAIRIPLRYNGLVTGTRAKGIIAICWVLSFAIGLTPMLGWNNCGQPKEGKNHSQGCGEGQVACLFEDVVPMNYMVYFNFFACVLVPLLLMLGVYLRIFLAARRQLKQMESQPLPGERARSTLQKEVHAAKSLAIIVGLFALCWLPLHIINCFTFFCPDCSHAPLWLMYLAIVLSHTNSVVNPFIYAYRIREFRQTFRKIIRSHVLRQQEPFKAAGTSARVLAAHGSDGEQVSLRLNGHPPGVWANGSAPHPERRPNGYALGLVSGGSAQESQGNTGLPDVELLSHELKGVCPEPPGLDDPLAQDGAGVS

On to `CCn1cc2c(nc(NC(=O)Cc3cccs3)n3nc(-c4ccco4)nc23)n1`, for which the values for the inhibition constant Ki in test [1], in test [2] and in test [4] were 148 nM, 196 nM and 15.9 nM, respectively. Moreover, the IC50 in test [3] came to 15000 nM.
Take `COc1ccc(NC(=O)Nc2nc3nn(CCc4c(Br)cc(Br)cc4Br)cc3c3nc(-c4ccco4)nn23)cc1`: the Ki came to 25 nM in test [2] and 2030 nM in test [4].
On the same counts, the results for `CCOC(=O)COc1ccc(CCCn2ncc3c2nc(N)n2nc(-c4ccco4)nc32)cc1` are above 10000 nM and 0.43 nM.
Turning to `CCCCn1cc2c(nc(NC(=O)Cc3cccs3)n3nc(-c4ccco4)nc23)n1`, the inhibition constant (Ki) in test [1] was found to be 70.1 nM; in test [2], 99.8 nM; in test [4], 4.15 nM. Further, the IC50 in test [3] turned out to be 1810 nM.
For the molecule `COc1ccc(CC(=O)Nc2nc3nn(C)cc3c3nc(-c4ccco4)nn23)cc1`, the Ki in test [1] turned out to be 133 nM; in test [2], 0.95 nM; in test [4] it was 62.5 nM. The IC50 in test [3] is above 10000 nM.
In the case of `O=C(Cc1ccsc1)Nc1nc2nn(CCc3ccccc3)cc2c2nc(-c3ccco3)nn12`, the Ki was found to be 22.8 nM in test [1] and 726 nM in test [2]. Further, the IC50 in test [3] was above 10000 nM.
For the molecule `CC(C)CCn1cc2c(nc(NC(=O)Cc3ccc(C(F)(F)F)cc3)n3nc(-c4ccco4)nc23)n1`, the Ki in test [1] is 48.2 nM; in test [2] it was 266 nM; in test [4], 5.43 nM. In addition, in test [3], the IC50 was found to be 5480 nM.
In the case of `Cn1cc2c(nc(NC(=O)Cc3ccc4ccccc4c3)n3nc(-c4ccco4)nc23)n1`, the Ki in test [1] is 190 nM; in test [2] it was 14.5 nM; in test [4], 77.5 nM. Also, the IC50 in test [3] was above 10000 nM.
In the case of `Cn1cc2c(nc(NC(=O)Cc3cccc4ccccc34)n3nc(-c4ccco4)nc23)n1`, the results for the Ki in test [1], in test [2] and in test [4] were 872 nM, 3.47 nM and 80.5 nM, respectively. Moreover, the IC50 in test [3] was above 10000 nM.
For `CCn1cc2c(nc(NC(=O)Cc3ccc4ccccc4c3)n3nc(-c4ccco4)nc23)n1`, the Ki in test [1] turned out to be 185 nM; in test [2], 36.3 nM; in test [4] it was 18.4 nM. The IC50 in test [3] is 10400 nM.
For the molecule `O=C(Cc1ccc2ccccc2c1)Nc1nc2nn(CCc3ccccc3)cc2c2nc(-c3ccco3)nn12`, the Ki in test [1] came out at 57.5 nM; in test [2], 180 nM; in test [4] it was 42.1 nM. Moreover, the IC50 in test [3] is above 50000 nM.
On to `CCCCn1cc2c(nc(NC(=O)Cc3ccsc3)n3nc(-c4ccco4)nc23)n1`, for which the Ki in test [1] was determined as 25.5 nM; in test [2], 189 nM; in test [4], 3.13 nM. Further, the IC50 in test [3] was 906 nM.
In the same order, the values of `O=C(Cc1ccccc1)Nc1nc2nn(CCc3ccccc3)cc2c2nc(-c3ccco3)nn12` are 128 nM, 5.49 nM, 43.9 nM and above 3000 nM.
On the same counts, the results for `Cn1cc2c(nc(NC(=O)C(c3ccccc3)c3ccccc3)n3nc(-c4ccco4)nc23)n1` are 139 nM, 0.25 nM, 216 nM and 363 nM.
With `CCCCn1cc2c(nc(NC(=O)Cc3ccc4ccccc4c3)n3nc(-c4ccco4)nc23)n1`, the Ki is 174 nM in test [2] and 7.94 nM in test [4].
Regarding `CC(C)CCn1cc2c(nc(NC(=O)COc3ccc(Cl)cc3)n3nc(-c4ccco4)nc23)n1`, the Ki came out at 2310 nM in test [2] and 16.1 nM in test [4].
In the case of `Nc1nc2c(cnn2CCCc2ccc3c(c2S(=O)(=O)O)OCO3)c2nc(-c3ccco3)nn12`, the Ki is above 10000 nM in test [2] and 75 nM in test [4].
For the molecule `Nc1nc2nn(CCc3c(Br)cc(Br)cc3Br)cc2c2nc(-c3ccco3)nn12`, the Ki in test [2] was 4480 nM; in test [4], 348 nM.
As for `C=Cn1cc2c(nc(NC(=O)Nc3ccc(OC)cc3)n3nc(-c4ccco4)nc23)n1`, the results for the Ki in test [2] and in test [4] were 0.48 nM and 176 nM, respectively.
In the same order, the values of `CCOC(=O)c1ccc(CCn2ncc3c2nc(N)n2nc(-c4ccco4)nc32)cc1` are above 10000 nM and 4 nM.
For the molecule `O=C(Cc1cccc(Cl)c1)Nc1nc2nn(CCc3ccccc3)cc2c2nc(-c3ccco3)nn12`, the results for the Ki in test [1] and in test [2] were 13.2 nM and 273 nM, respectively. In addition, the IC50 in test [3] came out at 9100 nM.
For the molecule `O=C(Nc1cccc(Cl)c1)Nc1nc2nn(CCc3c(Br)cc(Br)cc3Br)cc2c2nc(-c3ccco3)nn12`, the inhibition constant (Ki) in test [2] turned out to be 71 nM; in test [4] it was 3600 nM.
On to `CC(C)(C)OC(=O)NCCCC(=O)Nc1nc2nn(CCc3ccccc3)cc2c2nc(-c3ccco3)nn12`, for which the Ki in test [4] was determined as 288 nM.
Turning to `O=C(Cc1cccs1)Nc1nc2nn(CCc3ccccc3)cc2c2nc(-c3ccco3)nn12`, the Ki stood at 18.5 nM in test [1] and 330 nM in test [2]. Moreover, the IC50 in test [3] is above 10000 nM.
As to `CCCCn1cc2c(nc(NC(=O)Cc3cccc4ccccc34)n3nc(-c4ccco4)nc23)n1`, the Ki in test [1] was 170 nM; in test [2] it was 100 nM. The IC50 in test [3] is 7370 nM.
In the case of `CSc1c2c(nc(NC(=O)Cc3ccc(OCC(C)C)cc3)n3nc(-c4ccco4)nc23)nn1C`, the Ki is above 1000 nM in test [2] and 50 nM in test [4].
Take `CCn1cc2c(nc(N)n3nc(-c4ccco4)nc23)n1`: the Ki in test [2] was found to be 3760 nM.
`COc1ccc(CC(=O)Nc2nc3nn(CCC(C)C)cc3c3nc(-c4ccco4)nn23)cc1`: the Ki worked out at 359 nM in test [2] and 1.95 nM in test [4].
Take `O=C(COc1ccc(Cl)cc1)Nc1nc2nn(CCCc3ccccc3)cc2c2nc(-c3ccco3)nn12`: the Ki in test [1] is 71.1 nM; in test [2], 400 nM. Besides, the IC50 in test [3] is above 10000 nM.
In test [2], `COc1ccc(CC(=O)Nc2nc3nn(C)c(SC)c3c3nc(-c4ccco4)nn23)cc1` came in with a Ki above 1000 nM.
For `CCOC(=O)[C@H]1Oc2ccc(CCCn3ncc4c3nc(N)n3nc(-c5ccco5)nc43)cc2O1`, the Ki is above 10000 nM in test [2] and 5.48 nM in test [4].
For `CC(C)CCn1cc2c(nc(NC(=O)CCCNC(=O)OC(C)(C)C)n3nc(-c4ccco4)nc23)n1`, in test [4], affinity was put at a Ki of 297 nM.
As for `CCn1cc2c(nc(NC(=O)C(c3ccccc3)c3ccccc3)n3nc(-c4ccco4)nc23)n1`, the values for the Ki in test [2] and in test [4] were 0.98 nM and 131 nM, respectively.
As to `COc1ccc(NC(=O)Nc2nc3nn(Cc4cccc5ccccc45)cc3c3nc(-c4ccco4)nn23)cc1`, the results for the Ki in test [2] and in test [4] were 16 nM and 3260 nM, respectively.
For `CC(C)CCn1cc2c(nc(NC(=O)Cc3ccsc3)n3nc(-c4ccco4)nc23)n1`, the figures for the Ki in test [2] and in test [4] were 540 nM and 3.88 nM, respectively.
The molecule `COc1ccc(CC(=O)Nc2nc3nn(CCCc4ccccc4)cc3c3nc(-c4ccco4)nn23)cc1` showed a Ki in test [2] of 120 nM.
`Cn1cc2c(nc(NC(=O)COc3ccccc3)n3nc(-c4ccco4)nc23)n1`: in test [2], the affinity corresponds to a Ki of 692 nM.
For `CC(C)CCn1cc2c(nc(NC(=O)Cc3cccs3)n3nc(-c4ccco4)nc23)n1`, in test [2], affinity was put at a Ki of 308 nM.
Regarding `O=C(COc1ccc(Cl)cc1)Nc1nc2nn(CCc3ccccc3)cc2c2nc(-c3ccco3)nn12`, the Ki stood at 3250 nM in test [2] and 31.7 nM in test [4].
In the same order, the values of `Nc1nc2c(cnn2CCCc2ccc3c(c2)O[C@@H](C(=O)O)O3)c2nc(-c3ccco3)nn12` are above 10000 nM and 59 nM.
With `CC(C)CCn1cc2c(nc(NC(=O)Cc3ccc(-c4ccccc4)cc3)n3nc(-c4ccco4)nc23)n1`, the Ki in test [1] was determined as 84.3 nM; in test [2], 268 nM. For the same molecule, the IC50 in test [3] turned out to be 8960 nM.

(Values after ChEMBL document CHEMBL1154073, “Combining selectivity and affinity predictions using an integrated Support Vector Machine (SVM) approach: An alternative tool to discriminate between the human adenosine A(2A) and A(3) receptor pyrazolo-triazolo-pyrimidine antagonists binding sites” (Bioorg Med Chem, 2009).)
